The source of these data is US9169203B2, “Sulfoxide-based surfactants” (Novus International Inc., priority 2012, dated 2015).

Where only a bound is given, the exact number is not on record here.

A short description of data set [1]: Surface tension at air-liquid interface at CMC, Wilhelmy plate method. The class given is physicochemical. The note with it: 25° C. and atmospheric pressure. The method, then: (§1) To determine whether the sulfoxide-based compounds synthesized in Examples 1-9 had surfactant properties, the critical micelle concentration (CMC), surface tension, and solubility were determined. The Wilhelmy plate method was used to determine the equilibrium surface or interfacial tension at an air-liquid interface. A Cahn DCA 322 high-sensitivity balance was used to perform the measurement. Glass slides manufactured by Corning with a width of 22 mm and thickness of 0.1 mm were used as probes; the motor speed was set to be 160 μm/sec. […] The measured force was converted to surface tension using the Wilhelmy equation. The CMC was calculated according to standard procedures.
(§2) The following compounds were tested: (1) hexyl 2-hydroxy-4-[…] (R6SO); (2) octyl 2-hydroxy-4-(methylsulfinyl)butanoate (R8SO); (3) a mixture of 70 wt % R8SO and 30 wt % decyl 2-hydroxy-4-(methylsulfinyl)butanoate (R10SO); (4) a mixture of 70 wt % R8SO and 30 wt % dodecyl 2-hydroxy-4-(methylsulfinyl)butanoate (R12SO); (5) 2-hydroxy-4-(methylsulfinyl)-N-octylbutanamide (R8NHSO); (6) a mixture of 60 wt % R8NHSO and 40 wt % 2-hydroxy-4-(methylsulfinyl)-N-decylbutanamide (R10NHSO); (7) a mixture of 75 wt % R8NHSO and 25 wt % 2-hydroxy-4-(methylsulfinyl)-N-dodecylbutanamide (R12NHSO); as well as the commercially available nonionic surfactants (8) Igepal® CO-630, a branched nonylphenol ethoxylate, and two alkyl ethylene oxides, (9) hexaethylene glycol monododecyl ether (C12E6) and (10) hexaethylene glycol monodecyl ether (C10E6).

Data set [2] in a line: Critical micelle concentration (CMC), Wilhelmy plate method. The note with it: in water at 25° C. and atmospheric pressure. The data set is classed as physicochemical. The protocol: as §1, §2
A short description of the next data set: Solubility in water. The data set is classed as physicochemical. Particulars: in water at 25° C. and atmospheric pressure. The protocol: as §1, §2
The subject of data set [3] is fresh water fish (i.e., fathead minnows). In words: Fresh water fish acute toxicity test (OECD 203). The class given is in vivo. The note with it: at 96 hr. The protocol:
(§3) The potential hazards of the sulfoxide-based compounds were examined by evaluating the toxicity of R8SO in three standard bioassays (i.e., fresh water algae growth inhibition test, Daphnia acute immobilization test, and fresh water fish acute toxicity test).
The fresh water fish acute toxicity test was conduced according to OECD 203 guidelines. For this test, fresh water fish (i.e., fathead minnows) were exposed to a series of concentrations of the test substances for a period of 96 hours. At least seven fishes were used at each test concentration and in the controls. Mortalities were recorded at 24, 48, 72, and 96 hours. Fish were considered dead if there was no visible movement (e.g. gill movements) and if touching of the caudal peduncle produced no reaction. The mortality counts were used to determine LC50, the concentration that killed 50% of the fish.

Another data set concerns fresh water algae. In words: Fresh water algae growth inhibition test (OECD 201). The data set is classed as cell-based. The note with it: at 72 hr. The method, then:
as §3
The fresh water algae growth inhibition test was conducted according to OECD 201 guidelines. Briefly, exponentially growing fresh water algae were exposed to several concentrations of the test substances in batch cultures over a period of 72 hours. The cultures were allowed unrestricted exponential growth under nutrient sufficient conditions and continuous fluorescent illumination. Three replicates at each test concentration were used. Growth was monitored over time and compared to the average growth of control cultures (with no test substances). Growth and growth inhibition are quantified from measurements of the algal biomass as a function of time.

In the next data set the test system is Daphnia. In words: Daphnia acute immobilization test (OECD 202). The class given is in vivo. Particulars: at 48 hr. The protocol: as §3
The Daphnia acute immobilization test was performed according to the OECD 202 guidelines. Briefly, young daphnids, ages less than 24 hours at the start of the test, were exposed to the test substances at a range of concentrations for a period of 48 hours. Generally, at least 20 animals, preferably divided into four groups of five animals each, were tested for each test concentration and for the controls (i.e., no test substance). The Daphnia were not fed during the test. At least 2 mL of test solution were provided for each animal. Temperatures were held between 18 and 22° C., and for each single test the temperature was within ±1° C. Immobilization was recorded at 24 hours and 48 hours, and compared to control values. Those animals that could not swim within 15 seconds after gentle agitation of the test container were considered to be immobile.

For the molecule `CCCCCCCCCCCCOCCOCCOCCOCCOCCOCCO` [Example C12E6, hexaethylene glycol monododecyl ether, reference compound], the “Surface Tension at CMC” value in data set [1] was 41 mN/m. Further, the CMC in data set [2] was 0.087 mM.
For `CCCCCCCCNC(=O)C(O)CC[S+](C)[O-]` (stereo not shown) [Example R8NHSO, 2-hydroxy-4-(methylsulfinyl)-N-octylbutanamide], the “Surface Tension at CMC” value in data set [1] was determined as 29 mN/m. The Solubility in the data set “Solubility in water” is listed as >50% (wt/wt total). For the same molecule, the CMC in data set [2] turned out to be 10.3 mM.
On to `CCCCCCCCOC(=O)C(O)CC[S+](C)[O-]` (stereo not shown) [Example R8SO, octyl 2-hydroxy-4-(methylsulfinyl)butanoate], for which, in data set [3], the “LC50 (concentration that killed 50% of the fish)” value is 148 ppm. Also, the “EC50 (50 percent reduction in growth relative to the control)” value in the data set on fresh water algae was 175 ppm. Besides, the “Surface Tension at CMC” value in data set [1] was 29 mN/m. In addition, in the data set on Daphnia, the “EC50 (concentration at which 50% of the animals were immobilized)” value turned out to be 79 ppm. For the same molecule, the Solubility in “Solubility in water” is >50% (wt/wt total). Further, the CMC in data set [2] is on record as 11.7 mM.
Take `CCCCCCOC(=O)C(O)CC[S+](C)[O-]` (stereo not shown) [Example R6SO, hexyl 2-hydroxy-4-(methylsulfinyl)butanoate]: the “Surface Tension at CMC” value in data set [1] turned out to be 33 mN/m. In “Solubility in water”, the Solubility is >50% (wt/wt total). This molecule also had a CMC in data set [2] of 120.9 mM.
In the case of `CCCCCCCCCCOCCOCCOCCOCCOCCOCCO` [Example C10E6, hexaethylene glycol monodecyl ether, reference compound], the “Surface Tension at CMC” value in data set [1] is given as 42 mN/m. In addition, the CMC in data set [2] is recorded as 0.90 mM.
